US20230295234A1, “ANTIMICROBIAL PEPTIDOMIMETICS” (SPEXIS AG, priority 2020, published 2023)
Bridge positions count the residues as written; N and C are the ends. Square brackets hold non-standard residues; d marks the D form. Peptide text beside a SMILES is read from it. * marks the point of attachment. Pro(4R-NH2) = N[C@H]1CN[C@H](C(=O)O)C1; X2 = N=C(N)N1C[C@H](O)C[C@H]1C(=O)*; Gly(N-2-aminoethyl) = NCCNCC(=O)O; Pen = CC(C)(S)[C@H](N)C(=O)O; dDab = NCC[C@@H](N)C(=O)O; Nle = CCCC[C@H](N)C(=O)O; Dab = NCC[C@H](N)C(=O)O; X3 = NCCN(CCN)CC(=O)*

How the values were obtained:
[1] = tested on: Escherichia coli ATCC 25922; settings: ATCC 25922
How it was run: (§1)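 First, bacterial colonies are suspended in saline and adjusted to 0.5 McFarland. Next, the suspension is diluted into cation-adjusted Mueller-Hinton II broth (approx. 5×10^5 CFU/mL). Finally, it is added to two-fold serially diluted peptide, with polysorbate 80 at 0.002% final.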

[2] = tested on: Escherichia coli MCR-1 Af 45; settings: MCR-1 Af 45
How it was run: as §1

[3] = tested on: Klebsiella pneumoniae SSI3010; settings: SSI3010
How it was run: as §1

[4] = tested on: human red blood cells (hRBC); assay: Hemolysis of human red blood cells; format: cell-based; settings: red cells of human, 1 h
How it was run: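 Percent hemolysis is OD540 of peptide-treated supernatant relative to water-lysed cells. Each peptide was tested at 200 μg/mL against 20% (v/v) washed human erythrocytes. Incubation was 1 h at 37 °C, 300 rpm.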

Compound | Escherichia coli ATCC 25922 MIC [1] [mg/L] | Escherichia coli MCR-1 Af 45 MIC [2] [mg/L] | Klebsiella pneumoniae SSI3010 MIC [3] [mg/L] | Hemolysis at 0.2 g/L [4] [%]
CC[C@H](C)[C@H](NC(=O)[C@@H]1C[C@@H](O)CN1C(=O)[C@@H](NC(=O)CNCCCN)C(C)C)C(=O)N[C@H](C(=O)N[C@@H](Cc1ccc(O)cc1)C(=O)N[C@@H]1C(=O)N[C@@H](CC(N)=O)C(=O)N[C@@H](CCCNC(=N)N)C(=O)N[C@@H](CCN)C(=O)N[C@@H]([C@@H](C)O)C(=O)N[C@H](CCN)C(=O)N[C@@H](CCCCN)C(=O)N[C@H](C(=O)N[C@@H](CCN)C(=O)N[C@@H](CCCNC(=N)N)C(=O)N[C@@H](Cc2ccc(O)cc2)C(=O)O)CSSC1(C)C)[C@@H](C)O [Example 33, Norn-Val-Hyp-Ile-Thr-Tyr-Pen-Asn-Arg-Dab-Thr-^DDab-Lys-Cys-Dab-Arg-Tyr] (HELM PEPTIDE1{[NCCCNCC(=O)[*:2]].V.[Hyp].I.T.Y.[Pen].N.R.[Dab].T.[NCC[C@@H](N[*:1])C(=O)[*:2]].K.C.[Dab].R.Y}$PEPTIDE1,PEPTIDE1,7:R3-14:R3$$$V2.0) | 0.125 | 0.125 | 0.25 | 0
CC[C@H](C)[C@H](NC(=O)[C@@H]1C[C@@H](O)CN1C(=O)[C@@H](NC(=O)CNCCCCN)C(C)C)C(=O)N[C@H](C(=O)N[C@@H](Cc1ccc(O)cc1)C(=O)N[C@@H]1C(=O)N[C@@H](CC(N)=O)C(=O)N[C@@H](CCCNC(=N)N)C(=O)N[C@@H](CCN)C(=O)N[C@@H]([C@@H](C)O)C(=O)N[C@H](CCN)C(=O)N[C@@H](CCCCN)C(=O)N[C@H](C(=O)N[C@@H](CCN)C(=O)N[C@@H](CCCNC(=N)N)C(=O)N[C@@H](Cc2ccc(O)cc2)C(=O)O)CSSC1(C)C)[C@@H](C)O [Example 34, Nlys-Val-Hyp-Ile-Thr-Tyr-Pen-Asn-Arg-Dab-Thr-^DDab-Lys-Cys-Dab-Arg-Tyr] (HELM PEPTIDE1{[NCCCCNCC(=O)[*:2]].V.[Hyp].I.T.Y.[Pen].N.R.[Dab].T.[NCC[C@@H](N[*:1])C(=O)[*:2]].K.C.[Dab].R.Y}$PEPTIDE1,PEPTIDE1,7:R3-14:R3$$$V2.0) | 0.125 | 0.125 | 0.125 | 0
CC[C@H](C)[C@H](NC(=O)[C@@H]1C[C@@H](O)CN1C(=O)[C@@H](NC(=O)[C@@H]1C[C@@H](O)CN1C(=N)N)C(C)C)C(=O)N[C@H](C(=O)N[C@@H](Cc1ccc(O)cc1)C(=O)N[C@@H]1C(=O)N[C@@H](CC(N)=O)C(=O)N[C@@H](CCCNC(=N)N)C(=O)N[C@@H](CCN)C(=O)N[C@@H]([C@@H](C)O)C(=O)N[C@H](CCN)C(=O)N[C@@H](CCCCN)C(=O)N[C@H](C(=O)N[C@@H](CCN)C(=O)N[C@@H](CCCNC(=N)N)C(=O)N[C@@H](Cc2ccc(O)cc2)C(=O)O)CSSC1(C)C)[C@@H](C)O [Example 35, Gua-Hyp-Val-Hyp-Ile-Thr-Tyr-Pen-Asn-Arg-Dab-Thr-^DDab-Lys-Cys-Dab-Arg-Tyr] (HELM PEPTIDE1{[N=C(N)N1C[C@H](O)C[C@H]1C(=O)[*:2]].V.[Hyp].I.T.Y.[Pen].N.R.[Dab].T.[NCC[C@@H](N[*:1])C(=O)[*:2]].K.C.[Dab].R.Y}$PEPTIDE1,PEPTIDE1,7:R3-14:R3$$$V2.0) | 0.125 | 0.125 | 0.25 | 0
CC[C@H](C)[C@H](NC(=O)[C@@H]1C[C@@H](N)CN1C(=O)[C@@H](NC(=O)[C@@H]1C[C@@H](O)CN1C(=N)N)C(C)C)C(=O)N[C@H](C(=O)N[C@@H](Cc1ccc(O)cc1)C(=O)N[C@@H]1C(=O)N[C@@H](CC(N)=O)C(=O)N[C@@H](CCCNC(=N)N)C(=O)N[C@@H](CCN)C(=O)N[C@@H]([C@@H](C)O)C(=O)N[C@H](CCN)C(=O)N[C@@H](CCCCN)C(=O)N[C@H](C(=O)N[C@@H](CCN)C(=O)N[C@@H](CCCNC(=N)N)C(=O)N[C@@H](Cc2ccc(O)cc2)C(=O)O)CSSC1(C)C)[C@@H](C)O [Example 36, Gua-Hyp-Val-Pro((4R)NH2)-Ile-Thr-Tyr-Pen-Asn-Arg-^Dab-Thr-^DDab-Lys-Cys-Dab-Arg-Tyr] (X2-V[Pro(4R-NH2)]ITY[Pen]NR[Dab]T[dDab]KC[Dab]RY-OH; disulfide 6-13) | 0.125 | 0.0625 | 0.125 | 0
CC[C@H](C)[C@H](NC(=O)CN(CCN)C(=O)[C@@H](NC(=O)[C@@H]1C[C@@H](O)CN1C(=N)N)C(C)C)C(=O)N[C@H](C(=O)N[C@@H](Cc1ccc(O)cc1)C(=O)N[C@@H]1C(=O)N[C@@H](CC(N)=O)C(=O)N[C@@H](CCCNC(=N)N)C(=O)N[C@@H](CCN)C(=O)N[C@@H]([C@@H](C)O)C(=O)N[C@H](CCN)C(=O)N[C@@H](CCCCN)C(=O)N[C@H](C(=O)N[C@@H](CCN)C(=O)N[C@@H](CCCNC(=N)N)C(=O)N[C@@H](Cc2ccc(O)cc2)C(=O)O)CSSC1(C)C)[C@@H](C)O [Example 37, Gua-Hyp-Val-Ndab-Ile-Thr-Tyr-Pen-Asn-Arg-Dab-Thr-^DDab-Lys-Cys-Dab-Arg-Tyr] (X2-V[Gly(N-2-aminoethyl)]ITY[Pen]NR[Dab]T[dDab]KC[Dab]RY-OH; disulfide 6-13) | 0.25 | 0.0625 | 0.25 | 0
CC[C@H](C)[C@H](NC(=O)[C@@H]1C[C@@H](O)CN1C(=O)[C@@H](NC(=O)[C@@H]1C[C@@H](N)CN1C(=N)N)C(C)C)C(=O)N[C@H](C(=O)N[C@@H](Cc1ccc(O)cc1)C(=O)N[C@@H]1C(=O)N[C@@H](CC(N)=O)C(=O)N[C@@H](CCCNC(=N)N)C(=O)N[C@@H](CCN)C(=O)N[C@@H]([C@@H](C)O)C(=O)N[C@H](CCN)C(=O)N[C@@H](CCCCN)C(=O)N[C@H](C(=O)N[C@@H](CCN)C(=O)N[C@@H](CCCNC(=N)N)C(=O)N[C@@H](Cc2ccc(O)cc2)C(=O)O)CSSC1(C)C)[C@@H](C)O [Example 38, Gua-Pro((4R)NH2)-Val-Hyp-Ile-Thr-Tyr-Pen-Asn-Arg-Dab-Thr-^DDab-Lys-Cys-Dab-Arg-Tyr] (HELM PEPTIDE1{[N=C(N)N1C[C@H](N)C[C@H]1C(=O)[*:2]].V.[Hyp].I.T.Y.[Pen].N.R.[Dab].T.[NCC[C@@H](N[*:1])C(=O)[*:2]].K.C.[Dab].R.Y}$PEPTIDE1,PEPTIDE1,7:R3-14:R3$$$V2.0) | 0.25 | 0.0625 | 0.125 | 0
CCCC[C@H](NC(=O)[C@H](CCCNC(=N)N)NC(=O)[C@H](CCN)NC(=O)[C@@H]1CSSC(C)(C)[C@H](NC(=O)[C@H](Cc2ccc(O)cc2)NC(=O)[C@@H](NC(=O)[C@@H](NC(=O)[C@@H]2CCCN2C(=O)[C@@H](NC(=O)CN(CCN)CCN)C(C)C)[C@@H](C)CC)[C@@H](C)CC)C(=O)N[C@@H](CC(N)=O)C(=O)N[C@@H](CCCNC(=N)N)C(=O)N[C@@H](CCCNC(=N)N)C(=O)N[C@@H]([C@@H](C)O)C(=O)N[C@H](CCN)C(=O)N[C@@H](CCCCN)C(=O)N1)C(=O)O [Example 39, Bis(2aminoethyl)Gly-Val-Pro-Ile-Ile-Tyr-Pen-Asn-Arg-Arg-Thr-^DDab-Lys-Cys-Dab-Arg-Nle] (HELM PEPTIDE1{[NCCN(CCN)CC(=O)[*:2]].V.P.I.I.Y.[Pen].N.R.R.T.[NCC[C@@H](N[*:1])C(=O)[*:2]].K.C.[Dab].R.[Nle]}$PEPTIDE1,PEPTIDE1,7:R3-14:R3$$$V2.0) | 0.0625 | ≤0.03125 | 0.0625 | 0
CCCC[C@H](NC(=O)[C@H](CCCNC(=N)N)NC(=O)[C@H](CCC(N)=O)NC(=O)[C@@H]1CSSC(C)(C)[C@H](NC(=O)[C@H](Cc2ccc(O)cc2)NC(=O)[C@@H](NC(=O)[C@@H](NC(=O)[C@@H]2C[C@@H](N)CN2C(=O)[C@@H](NC(=O)CN(CCN)CCN)C(C)C)[C@@H](C)CC)[C@@H](C)CC)C(=O)N[C@@H](CC(N)=O)C(=O)N[C@@H](CCCNC(=N)N)C(=O)N[C@@H](CCN)C(=O)N[C@@H]([C@@H](C)O)C(=O)N[C@H](CCN)C(=O)N[C@@H](CCCCN)C(=O)N1)C(=O)O [Example 40, Bis(2aminoethyl)Gly-Val-Pro((4R)NH2)-Ile-Ile-Tyr-Pen-Asn-Arg-Dab-Thr-DDab-Lys-Cys-Gln-Arg-Nle] (X3-V[Pro(4R-NH2)]IIY[Pen]NR[Dab]T[dDab]KCQR[Nle]-OH; disulfide 6-13) | 0.125 | 0.0625 | 0.25 | 0
CC[C@H](C)[C@H](NC(=O)[C@@H]1C[C@@H](O)CN1C(=O)[C@@H](NC(=O)[C@@H]1C[C@@H](O)CN1C(=O)[C@@H](N)CCCCN)C(C)C)C(=O)N[C@H](C(=O)N[C@@H](Cc1ccc(O)cc1)C(=O)N[C@@H]1C(=O)N[C@@H](CC(N)=O)C(=O)N[C@@H](CCCNC(=N)N)C(=O)N[C@@H](CCN)C(=O)N[C@@H]([C@@H](C)O)C(=O)N[C@H](CCN)C(=O)N[C@@H](CCCCN)C(=O)N[C@H](C(=O)N[C@@H](CCN)C(=O)N[C@@H](CCCNC(=N)N)C(=O)N[C@@H](Cc2ccc(O)cc2)C(=O)O)CSSC1(C)C)[C@@H](C)O [Example 41, Lys-Hyp-Val-Hyp-Ile-Thr-Tyr-Pen-Asn-Arg-Dab-Thr-^DDab-Lys-Cys-Dab-Arg-Tyr] (HELM PEPTIDE1{K.[Hyp].V.[Hyp].I.T.Y.[Pen].N.R.[Dab].T.[NCC[C@@H](N[*:1])C(=O)[*:2]].K.C.[Dab].R.Y}$PEPTIDE1,PEPTIDE1,8:R3-15:R3$$$V2.0) | 0.125 | 0.0625 | 0.25 | 0
